The results in this text go back to publication PMC10053865 (2023).

Test [1] relates to Cocaine aptamer (Au-supported sensor) (DNA, aptamer) GACAAGGAAAATCCTTCAACGAAGTGGGTC
Put plainly: square-wave voltammetry (80 Hz), Hill fit. The conditions noted are these: 137 mM NaCl, 2.7 mM KCl; 1x PBS pH 7.4, 23 °C; apparent; procaine hydrochloride.

Test [2] concerns Cocaine aptamer (ITO-supported sensor) (DNA, aptamer) GACAAGGAAAATCCTTCAACGAAGTGGGTC
Put plainly: square-wave voltammetry (60 Hz), Hill fit. The note with it: 137 mM NaCl, 2.7 mM KCl; 1x PBS pH 7.4, 23 °C; apparent; procaine hydrochloride.

On to `CCN(CC)CCOC(=O)c1ccc(N)cc1`, for which the KD-Au in test [1] came to 63.7 ± 9.3 mM. Moreover, the KD-ITO in test [2] is given as 6.2 ± 0.6 mM.
